Assays:
[1] = biological target: T1, 15-LOX-1 (Homo sapiens, UniProt P16050); experiment: Kitz-Wilson kinetic analysis of 15-LOX-1 inactivation; format: biochemical; parameters: His-tag (N); made in house; host or cells: E. coli BL21(DE3); settings: for Ki: read-out: K i (equilibrium binding constant)
T1 sequence (P16050 1-662): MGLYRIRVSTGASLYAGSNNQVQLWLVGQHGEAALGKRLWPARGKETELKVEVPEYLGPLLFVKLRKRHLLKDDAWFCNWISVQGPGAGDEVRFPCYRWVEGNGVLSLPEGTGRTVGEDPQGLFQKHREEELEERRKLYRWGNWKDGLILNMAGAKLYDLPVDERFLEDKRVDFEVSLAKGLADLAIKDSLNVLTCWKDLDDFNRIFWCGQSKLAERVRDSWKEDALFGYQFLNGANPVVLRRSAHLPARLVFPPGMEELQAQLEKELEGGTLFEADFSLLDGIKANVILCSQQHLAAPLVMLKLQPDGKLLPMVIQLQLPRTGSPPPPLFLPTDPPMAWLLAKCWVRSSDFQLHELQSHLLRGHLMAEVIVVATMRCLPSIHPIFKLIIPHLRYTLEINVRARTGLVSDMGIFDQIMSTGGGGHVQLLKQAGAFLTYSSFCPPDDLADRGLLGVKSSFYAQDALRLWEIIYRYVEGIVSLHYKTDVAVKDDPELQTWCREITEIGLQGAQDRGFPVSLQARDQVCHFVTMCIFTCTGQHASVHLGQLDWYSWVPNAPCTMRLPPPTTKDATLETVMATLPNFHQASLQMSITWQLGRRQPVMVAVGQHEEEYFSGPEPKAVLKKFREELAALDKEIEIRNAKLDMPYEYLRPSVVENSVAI
Description: Subsequently, Kitz‐Wilson analysis was performed to distinguish the equilibrium binding constant (K i) from the rate of covalent inactivation (k i). The different bis‐alkynes provided remarkably constant k i’s that varied by a factor 3 or less, whereas the K i’s varied by a factor 200 (Table 1). […] Improved non‐covalent binding is an important characteristic for activity‐based labeling because it implies improved specific recognition properties to the target of interest. Therefore, inhibitor 3 has been used for further development of a probe for activity‐based labeling of lipoxygenase activity with 15‐LOX‐1 as a reference enzyme. For convenient discussion, we named inhibitor 3, “Labelox B”. […]
described in the IC50 determination assay. Michaelis-Menten plots, Lineweaver-Burk plots, Km, and Vmax, are generated using GraphPad Prism 8.3.0.
1.5. Kits-Wilson kinetic analysis
The probes inhibit the 15-LOX-1 enzyme with a two-step reaction. First, a probe binds to an enzyme to get a reversible complex, E*I. The dissociation constant of inhibitor (Ki) is from the formation of E*I. Then, the probe forms a covalent bond with the enzyme, which generates an irreversible complex, E-I. The inactivation rate constant (ki) is to describe the rate of E-I generation. To determine these inactivation parameters, Kitz-Wilson analysis was employed. The procedure has been detailed previously

[2] = biological target: T1, 15-LOX-1; experiment: 15-LOX-1 activity assay, UV-absorbance change for linoleic acid conversion; format: biochemical; parameters: His-tag (N); made in house; host or cells: E. coli BL21(DE3); settings: for IC50: 10 min pre-incubation at RT, 25 µM linoleic acid, absorbance 234 nm; for Mode of inhibition (Lineweaver–Burk plots): Km constant, Vmax decreases with inhibitor concentration
Description: In brief, an alkyne‐alcohol was linked to propargyl halide (Cl or Br) using a CuI‐catalyzed Sonogashira cross‐coupling reaction followed by biotinylation of the alcohol using EDCI and HOBt as reagents to provide the desired biotinylated bis‐alkyne probes. The biotinylated bis‐alkynes were subjected to 15‐LOX‐1 binding studies using a 15‐LOX‐1 activity assay based on the UV‐absorbance change for linoleic acid conversion (Figure 1 a). […] Next, we evaluated the effect of the extension of the terminal ethyl substitution of inhibitor 1. […]
empty plasmid was proceed with the same procedure, which lysate was used as the negative control (referred as BL21 control later) in 15-LOX-1 recombinant enzyme inhibition studies.
1.3. Purification of recombinant human 15-LOX-1
The 15-LOX-1 with N-terminal his-tag was produced as described above. After removing the cell debris, the supernatant containing 15-LOX-1 was loaded on a Ni-NTA column (Qiagen, Hilden, Germany) pre-equilibrated with LOX lysis buffer. The column was washed twice with 30 column volume of LOX lysis buffer, and once with 30 column volume of wash buffer (25 mM HEPES, 300 mM NaCl, 25 mM Imidazole, pH 8.0). Later, the 15-LOX-1 was eluted twice with 2 column volume of elution buffer (25 mM HEPES, 300 mM NaCl, 250 mM Imidazole, pH 8.0), followed by desalting with a PD-10 column (Sigma-Aldrich) with LOX storage buffer (25 mM HEPES, 20% Glycerol, pH 7.5). The desalted 15-LOX-1 was further purified and concentrated with Vivaspin Turbo 15 (30.000 MWCO). The protein concentration was determined by Nanodrop spectrophotometry. The 100 μl aliquots of 15-LOX-1 were stored at -20 for further experiments.
15-LOX-1 recombinant enzyme inhibition assay
The 15-LOX-1 inhibition assay has been detailed previously. Briefly, the conversion of linoleic acid to hydroperoxy-(9Z,11E)-octadecadienoic acid (λmax of 234 nm) was used to determine the activity of the 15-LOX-1 enzyme. The conversion rate was the slope of UV-absorbance at 234 nm overtime at the […]
To determine the IC50 of probes, the cell lysate was pre-diluted in LOX assay buffer at a ratio of 1:160. The inhibition assay was done in an F-bottom UV-STAR 96-well plate, in which 50 µl of the diluted enzyme was incubated with 140 µl of a probe diluted in LOX assay buffer for 10 min at room temperature (RT). Later 10 µl of 500 µM linoleic acid dissolved in ethanol was added to the plate to reach a final concentration of 25 µM. The UV-absorbance at 234 nm was determined by a BioTek Synergy H1 plate reader (BioTek, Winooski, VT, USA) . The slope of the 15-LOX-1 sample untreated with the probe was set as 100%, while the slope of the BL21 control sample was set as 0%.
For the determination of enzyme kinetics, a series concentration of linoleic acid was used. Fifty µl of pre-diluted 15-LOX-1 enzyme was incubated with 140 µl of probe solution at a fixed concentration for 10 min at RT. Subsequently, 10 µl of a series concentration of linoleic acid was added to a final concentration ranging from 10 µM to 100 µM. The conversion rate was calculated as the same as […]
described in the IC50 determination assay. Michaelis-Menten plots, Lineweaver-Burk plots, Km, and Vmax, are generated using GraphPad Prism 8.3.0. […]

k i (rate of covalent inactivation) [1] | Ki [1] | IC50 [2] | Mode of inhibition (Lineweaver–Burk plots) [2] | Structure (SMILES) | further results
0.0066 ± 0.0047 min⁻¹ | 38.7 ± 6.33 µM | 19.8 µM |  | CCC#CCC#CCCCOC(=O)CCCC[C@@H]1SC[C@@H]2NC(=O)N[C@@H]21 [Probe 5] | LOX inhibitory potency (words) ([2]; structure-activity discussion): loss of LOX inhibitory potency
0.0136 ± 0.0061 min⁻¹ | 116 ± 19.5 µM | 38.2 µM | non‐competitive LOX inhibition | CCC#CCC#CCOC(=O)CCCC[C@@H]1SCC2NC(=O)NC21 (some centres unmarked) [Probe 1] | 
 |  | > 100 µM |  | CCCC#CCOC(=O)CCCC[C@@H]1SCC2NC(=O)NC21 (some centres unmarked) [Probe 10] | 

The remaining lines, values behind:

Structure (SMILES) | k i (rate of covalent inactivation) [1] | Ki [1] | IC50 [2] | Mode of inhibition (Lineweaver–Burk plots) [2] | further results
CCC#CCC#CCCOC(=O)CCCC[C@@H]1SC[C@@H]2NC(=O)N[C@@H]21 [Probe 4] | 0.0093 ± 0.0031 min⁻¹ | 16.6 ± 3.29 µM | 11.1 µM |  | LOX inhibitory potency (words) ([2]; structure-activity discussion in text, listed as 4): loss of LOX inhibitory potency
CCCCCC#CCC#CCCCOC(=O)CCCC[C@@H]1SC[C@@H]2NC(=O)N[C@@H]21 [Probe 6] |  |  |  |  | LOX inhibitory potency (words) ([2]; structure-activity discussion in text, listed as 6): did not improve the potency
CCCCCC#CCC#CCCCOC(=O)CCCC[C@@H]1SC[C@@H]2NC(=O)N[C@@H]21 [Probe 7] |  |  | > 100 µM | non‐competitive LOX inhibition | LOX inhibitory potency (words) ([2]; structure-activity discussion in text, listed as 7): regain in potency
CCC#CCC#CC(C)OC(=O)CCCC[C@@H]1SCC2NC(=O)NC21 (some centres unmarked) [Probe 2] |  |  | > 100 µM |  | LOX inhibitory potency (words) ([2]; structure-activity discussion): potency was lost
CCC#CCC#CCCOC(=O)CCCC[C@@H]1SC[C@@H]2NC(=O)N[C@@H]21 [Probe 8] |  |  | > 100 µM | non‐competitive LOX inhibition | LOX inhibitory potency (words) ([2]; structure-activity discussion in text, listed as 8): did not improve the potency
C#CCOC(=O)CCCC[C@@H]1SCC2NC(=O)NC21 (some centres unmarked) [Probe 9] |  |  | > 100 µM |  | 
